# A melting point compilation (Tetko et al.; mined from patent text by program, amines drawn as free bases though some values may be those of a salt)
row,Structure (SMILES),melting point [°C]
1,CC(C)(C)C(F)(F)c1ccc(C(N)=O)cc1,128 to 132
2,CS(=O)(=O)c1ccc(-c2cnn(CC(F)(F)F)c(=O)c2SCC(F)(F)F)cc1,155 to 158
3,O=C1C2CCN(CC2)C1Cc1ccc(-c2ccc(F)cc2)cc1 (stereo not given),122 to 123
4,O=C(CCCCO)c1cccnc1,36 to 38
5,COc1c(O)cnc(CNc2nc(C)nc(C)c2Cl)c1C,220 to 224
6,CCCCC[C@H]1CC[C@H](c2ccc(-c3ccc(CCc4ccc(OCC)cc4)cc3)cc2F)CC1,133
7,CC(C)(C)c1cc(SC(Sc2cc(C(C)(C)C)c(O)c(C(C)(C)C)c2)C2CC=CCC2)cc(C(C)(C)C)c1O (stereo not given),122 to 125
8,OC[C@@](O)(Cc1ccccc1)c1ccccc1,62
9,O=c1cc(-c2ccsc2)c2ccc(O)cc2o1,234 to 236
10,Cc1ccn(-c2ccc(C(=O)c3cccc4c3Nc3ncccc3C(C)N4)c(C(F)(F)F)c2)n1 (stereo not given),188 to 190
11,CCOC(OCC)c1cc(NC(c2ccccc2)(c2ccccc2)c2ccccc2)c(F)c(-c2ccc(Cl)c(OC)c2F)n1,177 to 180
12,O=CN(O)[C@@H](CN1C(=O)CNC1=O)CS(=O)(=O)c1ccc(Oc2ccc(OC(F)(F)F)cc2)cc1,154
13,C#CCCOc1ccc(/C=C/C(=O)Nc2ccccc2C(=O)O)cc1OC,178 to 180
14,O=Cc1c(-c2ccccc2Br)ccc2c1OCO2,89 to 91
15,CC(C)(C)OC(=O)N[C@@H](C=O)Cc1ccc(OCc2ccccc2)cc1,98 to 99
16,CCCn1nc2c(N)nc3ccccc3c2c1CCCc1cc(-c2cccnc2)on1,196 to 198
17,O=C(O)C1=Cc2cc(F)cc(Br)c2OC1C(F)(F)F (stereo not given),> 300
18,COc1cc2nc(SC)c(C#N)c(C)c2cc1OCc1ccccc1,171 to 174
19,COCCn1cc2c(C3C(=O)Nc4ccc(Br)cc43)nc(NCc3cccnc3)nc2n1 (stereo not given),300 to 301
20,COC(=O)Cc1cccc(NC(=O)NC2c3cc(C#N)ccc3OC(C)(C)C2O)c1 (stereo not given),72 to 75
21,Cn1nc(C=O)c(Br)c1C(C)(C)CNC(=O)c1ccccc1,150 to 151
22,O=C(O)CCNC(=O)C(=Cc1ccccc1)CS,80

row,Structure (SMILES),melting point [°C]
1,CS(=O)(=O)c1snc(OCC#CI)c1C#N,191 to 192
2,C=C(C)c1cc(C(=O)OC)c(OCc2ccccc2)cc1OCc1ccccc1,92 to 94
3,Cc1ccc(S(=O)(=O)NCC[C@@H](NS(=O)(=O)c2ccc(C)cc2)C(=O)NO)cc1,152 to 153
4,NS(=O)(=O)c1nn(-c2ccccn2)cc1Br,145 to 146
5,O=C(O)C(CCSc1ccccc1)Oc1ccc(C(F)(F)F)cc1 (stereo not given),108 to 110
6,Nc1cc(Cl)cnc1Oc1ccc(O)cc1,174
7,CC(O)(CCBr)c1ccc(-c2ccc(F)cc2)cc1 (stereo not given),72 to 74
8,COc1ccc(OCCCCCC(=O)O)c(C=O)c1,104 to 106
9,O=C(c1cccc([N+](=O)[O-])c1)N1CCOCC1,83.5 to 85
10,Cc1ccccc1S(=O)(=O)NC(=O)c1csc(Cc2ccc3oc(-c4nc(C(C)(C)C)cs4)cc3c2)n1,201 to 203
11,O=C(Nc1ccc(-n2nc(C(F)(F)F)cc2C(F)(F)F)cc1)c1cccc(F)c1F,147 to 149
12,CCOC(=O)c1cn(-c2cnccn2)cn1,128 to 129
13,C=CCCC(Oc1ccc(C(=O)Cl)cc1)C1CCCCC1 (stereo not given),22 to 25
14,O=[N+]([O-])c1ccc(Cc2nc(-c3ccncc3)cs2)cc1,140 to 142
15,CSc1ccc(C(=O)c2cc(C)cc(CC(N)=O)c2N)cc1,188 to 190
16,c1ccc(-c2nc(COc3cccc(CCCn4ccnc4)c3)co2)cc1,62 to 63
17,NN1C=NNC1=Cc1ccccc1,171 to 173
18,CNc1nc(-c2ccc(OC)c(OC)c2)cs1,120 to 123
19,C=CC(=O)N1Cc2ccccc2SC(Cl)C1 (stereo not given),66 to 68
20,CCOP(=O)(/C=C/c1cn(-c2ccccc2)nc1OCc1ccc(OCc2nc(/C=C/C(=O)O)oc2C)c(OC)c1)OCC,89 to 90
21,CCN(CC)CCNC(=O)c1cc(Cl)c(N)cc1OCC(C)O (stereo not given),149 to 150
22,C[C@@H]1O[C@@]1(Cn1ccnc1)c1ccc(F)cc1F,73 to 76

row,Structure (SMILES),melting point [°C]
1,CCCCN(CC)c1cc(C)nc(Sc2c(C)cc(C)cc2C)c1,110 to 112
2,CC(C)C(C)(C)C(=O)C(Cc1ccc(Cl)cc1)n1cncn1 (stereo not given),91 to 94
3,Fc1ccc([C@@]2(Cn3nc[nH]c3=S)O[C@@H]2c2ccccc2C(F)(F)F)cc1F (relative stereo),143 to 146
4,CCCc1c(OCCCBr)ccc(C(C)=O)c1O,38 to 40
5,Cn1c(C(F)(F)F)cc(=O)n(-c2ccc(Cl)cc2O)c1=O,198 to 202
6,COc1ccc(-c2ccc3c(c2)c2ccc(Cl)nc2n3S(=O)(=O)c2ccccc2)cc1,176 to 178
7,CCc1c(-c2ccc(O)cc2)c2cc(C(C)=O)c3cc(OC)cc1n32,245 to 246
8,CC1(C)CC(OC(=O)CCCCCCCCC(=O)OC2CC(C)(C)PC(C)(C)C2)CC(C)(C)P1 (stereo not given),58 to 63
9,C=CCn1cnc2c1c(=O)n(CCCCC(C)O)c(=O)n2C (stereo not given),71
10,Nc1ccc(NC=C(S(=O)(=O)c2ccccc2)S(=O)(=O)c2ccccc2)nc1,172 to 174
11,O=C(O)C1=Cc2cc(Cl)c(Oc3cccnc3Cl)cc2OC1C(F)(F)F (stereo not given),213 to 216
12,NS(=O)(=O)c1cc2c(s1)S(=O)(=O)N(CCc1ccccc1)C[C@H]2O,117 to 119
13,CN(C)C(=O)Nc1ccc(Br)cc1,168 to 170
14,CCOCCNC(=O)c1ccn2nc(-c3ccccc3)c(-c3ccc(=O)n(C(C)C)n3)c2c1,149 to 150
15,CCOC(=O)C=Cc1cnn2c(N(C)c3ccccc3)ncnc12,139
16,CCOc1cc2c(-c3ccnc(Cl)c3)c(CO)c(CO)cc2cc1OC,123 to 126
17,Cc1ccc(CC(N)=NO)cc1C,59 to 60
18,CCOC(=O)C=CC=Cc1cccc2cncn12,101 to 103
19,CC(=O)N(C)c1nc(C(C)(C)C)nn1-c1c(Cl)cc(Cl)cc1Cl,93 to 94
20,CCOP(=O)(OCC)C(Nc1nc2ccccc2[nH]1)P(=O)(OCC)OCC,169 to 170
21,O=[N+]([O-])c1ccccc1C(O)c1cc2c(Oc3ccc(Cl)cc3)cncc2s1 (stereo not given),85 to 90

# Now from value to compound:
row,melting point [°C],Structure (SMILES)
1,150 to 153,Cc1c(C)c2c(c(C)c1N)CC(C)(CN1CCc3c([nH]c4ccccc34)C1)O2 (stereo not given)
2,230 to 232,COc1cccc(C23CCCC=C2C(=O)NC(=O)C3)c1 (stereo not given)
3,88 to 89,CNC(=O)c1cc(-c2c[nH]nc2-c2ccc(F)cc2)ccn1
4,126 to 128,CSc1c(O)ccc2[nH]ncc12
5,151 to 153,CCC(CC)Oc1cc(C)nc2c1n(C)c(=O)n2-c1c(C)cc(C)cc1C
6,218,Cc1cc(CC(O)CN2C(=O)CCC2=O)cc(C(C)(C)C)c1O (stereo not given)
7,39 to 41,CCCc1c(OC(C)=O)ccc2oc(Cc3ccc(OC)cc3)c(C)c12
8,138 to 139,Cc1cc2c(nc1OCCCCN1CCN(c3cccc(Cl)c3Cl)CC1)NC(=O)CC2
9,96 to 98,CS(=O)(=O)NC1CCCOc2ccc([N+](=O)[O-])cc21 (stereo not given)
10,114 to 115,CC(=O)OCCSc1nc(C(C)(C)C)n[nH]1
11,> 260,O=C1c2ccccc2C(=O)c2[nH]c(-c3ccccc3)nc21
12,187 to 189,N#Cc1nc(Cl)c(Cl)[nH]1
13,225 to 226,NC(=NO)c1ccc2c(c1)nc(-c1ccc(OCc3ccccc3)cc1)n2C1CCCC1
14,174 to 175,COCCOc1cc(N(C)S(=O)(=O)c2nccn2C)c2[nH]c(C(=O)O)cc2c1
15,151 to 152,O=Cc1cccc(/C=C/c2nc3cc(F)ccc3s2)c1
16,225,CN(c1cccc2cc(-c3nccs3)[nH]c12)S(=O)(=O)c1ccsc1C(=O)O
17,162,O=C1CCCN(Cc2ccc([N+](=O)[O-])cc2Cl)c2ncccc21
18,137 to 140,O=C1NCC2(CCN(CC(O)COc3cccc4ccccc34)CC2)O1 (stereo not given)
19,224 to 226,O=C1C2Cc3c(ncn3Cc3ccccc3)CN2C(=S)N1c1ccccc1 (stereo not given)
20,162 to 163,Cc1csc(-c2ccc3c(=O)n(CC(C)C)c(CN)c(-c4ccccc4)c3c2)n1

row,melting point [°C],Structure (SMILES)
1,82 to 84,CCN1CC(=O)N(c2ccccc2C)C1=S
2,325 to 327,O=C(O)c1n[nH]c(C(=O)O)c1[N+](=O)[O-]
3,127 to 130,Cc1cccc(C2CCN(C(=O)Oc3ccccc3)CC2)c1
4,209 to 210,CC(=O)Nc1ncc(-c2ccc(=O)n(C(C)C)n2)c(-c2ccccc2)n1
5,188 to 190,Cc1ccc2nc(-c3ccc(N)c(Br)c3)sc2c1
6,55 to 61,COc1ccc(C(C#N)CNC(N)=O)cc1OC1CCCC1 (stereo not given)
7,218,C#Cc1cc2c(=O)nc(CCCC)[nH]c2cc1F
8,150 to 152,CCOC(=O)/C=C/c1cc(OC)c(OC)c(OC)c1C#N
9,165 to 168,CC(=O)C1CCC2C3CCC4=CC(=O)CCC4(CO)C3CCC12C (stereo not given)
10,63 to 64,COC(=O)c1ccc(C(F)(F)F)[nH]c1=O
11,94 to 96,COc1ccc(N2CCN(CCC3OCCc4cc(C(=O)N(C)C)ccc43)CC2)cc1 (stereo not given)
12,97 to 99,COc1ccc(C2(C#Cc3cccc(-c4nnc(C)s4)c3)CCCC(=O)C2)cc1OC1CCCC1 (stereo not given)
13,118 to 119,CCC1=C(C)CN(C(=O)NC2COc3cc(OC)ccc3C2)C1=O (stereo not given)
14,229,Cc1nc2c([nH]1)CCCC2=O
15,151 to 153,Cc1cc(Cl)ccc1Oc1ccc(NC(=O)N2CCc3ccccc3CC2)cn1
16,203 to 207,NC(=O)NC1CCCc2sccc21 (stereo not given)
17,185 to 186,CC(C)(C)c1ccc(C(=O)Nc2ccc3oc4c(c3c2)CCCC4)cc1
18,78 to 79,O=CN1CCc2cc(OCC3CO3)ccc2C1 (stereo not given)
19,228 to 230,Cc1nn(C)c2cc(-c3ccc(F)cc3)nc(-c3ccc(S(C)(=O)=O)cc3)c12
20,136 to 137,COc1cc(-c2nc(N)nn2CCC2CCCCC2)c(OC)cc1C
